Eleven compounds from patent publication US20090137572A1, “2-substituted-4-heteroaryl-pyrimidines useful for the treatment of proliferative disorders” (priority 2004, published 2009) can be followed below.

Molecules are shown by their SMILES.

Format in all cases: biochemical
One assay concerns the target CDK1-cyclin B (Homo sapiens, UniProt P06493). Description: Kinase assay (radioactive phosphate incorporation), CDK1-cyclin B. Particulars: read-out: Kinase Inhibition pIC50 CDK1-cyclin B (converted). The method in brief: (§1)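 Radiometric filter-binding format: recombinant kinase + substrate, pH 7.4 MOPS buffer with EGTA, DTT, vanadate; 100 μM ATP/[γ-32P]-ATP, 15 mM MgCl2; 30° C; stopped on ice, P81 or GF/C filtration, scintillation read.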

For a further assay, the target named is CDK2-cyclin A (Homo sapiens, UniProt P24941). Kind of assay: Kinase assay (radioactive phosphate incorporation), CDK2-cyclin A. As to conditions: read-out: Kinase Inhibition pIC50 CDK2-cyclin A (converted). A digest of the protocol: as §1
The target in the next assay is CDK2-cycline E (Homo sapiens, UniProt P24941). Description: Kinase assay (radioactive phosphate incorporation), CDK2-cyclin E. Particulars: read-out: Kinase Inhibition pIC50 CDK2-cycline E (converted). A digest of the protocol:
as §1

The target of a further assay is CDK4-cyclin D1 (Homo sapiens, UniProt P11802). Kind of assay: Kinase assay (radioactive phosphate incorporation), CDK4-cyclin D1. Particulars: read-out: Kinase Inhibition pIC50 CDK4-cyclin D1 (converted). The method in brief:
as §1

The next assay has as its target CDK7/cyclin H (Homo sapiens, UniProt P50613). Description: CDK 7 assay (CTD peptide substrate). As to conditions: read-out: Kinase Inhibition pIC50 CDK7-cyclin H (converted). A digest of the protocol: (§2)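 Test compounds were incubated with recombinant human kinase/cyclin complex and CTD peptide substrate for 45 min at 30° C (pH 7.2, 100 μM ATP spiked with 32PγATP, 15 mM MgCl2). Reactions were stopped on ice, avidin was added, and phosphorylated peptide was captured on P81 filters and counted by scintillation.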

A further assay deals with CDK9/cyclin T1 (Homo sapiens, UniProt P50750). Kind of assay: CDK 9 assay (CTD peptide substrate). As to conditions: read-out: Kinase Inhibition pIC50 CDK9-cyclin T1 (converted). The method in brief:
as §2

In another assay the target is GSK3b (Homo sapiens, UniProt P49841). Kind of assay: Kinase assay (radioactive phosphate incorporation), GSK-3b. As to conditions: read-out: Kinase Inhibition pIC50 GSK-3b (converted). The method in brief: as §1
GSK3b, sequence (P49841 whole entry, species assumed): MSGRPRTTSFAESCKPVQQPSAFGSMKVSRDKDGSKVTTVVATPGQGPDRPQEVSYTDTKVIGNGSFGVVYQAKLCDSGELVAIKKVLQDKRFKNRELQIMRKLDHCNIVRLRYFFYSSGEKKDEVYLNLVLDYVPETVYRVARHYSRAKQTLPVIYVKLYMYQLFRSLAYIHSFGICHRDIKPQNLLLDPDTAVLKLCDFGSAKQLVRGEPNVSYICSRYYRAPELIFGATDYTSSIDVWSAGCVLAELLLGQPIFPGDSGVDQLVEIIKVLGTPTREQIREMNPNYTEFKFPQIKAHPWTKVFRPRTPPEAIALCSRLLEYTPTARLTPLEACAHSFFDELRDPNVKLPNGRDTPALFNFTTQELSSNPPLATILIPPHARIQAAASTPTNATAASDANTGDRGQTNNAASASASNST
Assay [1] addresses T1, Flt3 (FMS-like tyrosine kinase-3) (Homo sapiens, UniProt P36888).
T1 sequence (P36888 27-993): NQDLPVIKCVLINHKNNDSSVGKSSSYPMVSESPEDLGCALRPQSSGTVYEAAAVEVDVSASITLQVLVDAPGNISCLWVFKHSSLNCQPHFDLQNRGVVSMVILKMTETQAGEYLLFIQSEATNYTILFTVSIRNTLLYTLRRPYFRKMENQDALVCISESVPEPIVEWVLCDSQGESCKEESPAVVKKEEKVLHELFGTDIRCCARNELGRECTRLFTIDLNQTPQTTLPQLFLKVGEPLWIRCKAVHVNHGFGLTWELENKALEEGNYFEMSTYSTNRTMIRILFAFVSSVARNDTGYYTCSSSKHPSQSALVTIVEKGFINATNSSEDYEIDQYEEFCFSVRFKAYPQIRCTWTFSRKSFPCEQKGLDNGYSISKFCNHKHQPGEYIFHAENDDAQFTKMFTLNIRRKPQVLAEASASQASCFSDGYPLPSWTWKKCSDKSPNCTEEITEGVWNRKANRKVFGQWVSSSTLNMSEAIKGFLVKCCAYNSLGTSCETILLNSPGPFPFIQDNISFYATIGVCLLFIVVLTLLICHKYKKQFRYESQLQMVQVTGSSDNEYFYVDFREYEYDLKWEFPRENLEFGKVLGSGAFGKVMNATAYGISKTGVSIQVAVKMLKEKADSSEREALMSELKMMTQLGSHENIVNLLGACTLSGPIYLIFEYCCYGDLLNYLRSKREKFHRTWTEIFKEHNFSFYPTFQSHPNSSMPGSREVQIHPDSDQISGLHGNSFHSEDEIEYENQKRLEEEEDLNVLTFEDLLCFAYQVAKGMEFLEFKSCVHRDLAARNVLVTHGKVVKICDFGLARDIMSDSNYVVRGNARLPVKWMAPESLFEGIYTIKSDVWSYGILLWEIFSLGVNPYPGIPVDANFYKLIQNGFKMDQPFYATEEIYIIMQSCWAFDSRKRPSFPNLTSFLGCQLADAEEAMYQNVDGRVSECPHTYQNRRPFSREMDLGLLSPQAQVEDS
Description: Kinase assay (radioactive phosphate incorporation), Flt3. Particulars: pIC50 is -log(IC50, M), read-out: Kinase Inhibition pIC50 Flt3 (converted). A digest of the protocol: as §1

The target in a further assay is T2, Aurora A kinase (Homo sapiens, UniProt O14965).
T2 construct: purchased
T2 sequence (O14965 1-403): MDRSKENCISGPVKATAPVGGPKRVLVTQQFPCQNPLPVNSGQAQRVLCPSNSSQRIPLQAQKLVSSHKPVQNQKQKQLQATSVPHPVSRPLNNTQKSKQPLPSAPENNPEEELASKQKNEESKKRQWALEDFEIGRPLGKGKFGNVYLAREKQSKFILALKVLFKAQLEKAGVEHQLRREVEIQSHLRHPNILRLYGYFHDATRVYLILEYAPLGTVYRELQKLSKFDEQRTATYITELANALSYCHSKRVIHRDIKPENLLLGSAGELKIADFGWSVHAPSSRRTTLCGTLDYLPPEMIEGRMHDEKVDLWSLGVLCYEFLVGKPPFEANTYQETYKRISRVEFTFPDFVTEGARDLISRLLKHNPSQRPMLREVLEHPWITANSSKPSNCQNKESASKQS
Description: Aurora-A (human) kinase assay (Kemptide substrate). Particulars: pIC50 is -log(IC50, M); 15 μM ATP; read-out: Kinase Inhibition pIC50 Aurora A kinase (converted). A digest of the protocol: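 Radiometric filter-binding assay: commercial aurora-A kinase (5-10 ng) with 200 μM Kemptide in MOPS/EDTA pH 7.0, started with 10 mM Mg acetate and 15 μM ATP plus [γ-33P]-ATP. Incubated 40 min at room temperature, stopped with phosphoric acid, incorporated 33P counted by scintillation.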

CDK4-cyclin D1, sequence (P11802 whole entry): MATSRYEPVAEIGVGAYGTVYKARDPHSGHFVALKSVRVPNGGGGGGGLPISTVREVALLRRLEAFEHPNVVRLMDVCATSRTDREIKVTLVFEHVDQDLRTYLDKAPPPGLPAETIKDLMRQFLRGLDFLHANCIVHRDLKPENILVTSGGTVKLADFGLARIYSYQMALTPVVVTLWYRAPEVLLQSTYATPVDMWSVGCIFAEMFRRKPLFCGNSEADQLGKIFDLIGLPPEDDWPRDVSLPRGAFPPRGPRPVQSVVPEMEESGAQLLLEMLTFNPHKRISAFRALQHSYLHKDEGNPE
CDK4-cyclin D1, sequence (P24385 whole entry partner): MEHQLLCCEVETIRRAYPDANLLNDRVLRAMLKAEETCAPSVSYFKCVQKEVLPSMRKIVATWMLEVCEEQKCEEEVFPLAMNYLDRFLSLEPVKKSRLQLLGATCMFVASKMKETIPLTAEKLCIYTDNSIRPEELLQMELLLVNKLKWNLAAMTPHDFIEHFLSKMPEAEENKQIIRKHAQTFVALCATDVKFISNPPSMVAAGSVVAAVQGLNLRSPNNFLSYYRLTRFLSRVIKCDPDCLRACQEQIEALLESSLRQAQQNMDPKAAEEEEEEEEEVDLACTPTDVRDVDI
CDK9/cyclin T1, sequence (P50750 whole entry): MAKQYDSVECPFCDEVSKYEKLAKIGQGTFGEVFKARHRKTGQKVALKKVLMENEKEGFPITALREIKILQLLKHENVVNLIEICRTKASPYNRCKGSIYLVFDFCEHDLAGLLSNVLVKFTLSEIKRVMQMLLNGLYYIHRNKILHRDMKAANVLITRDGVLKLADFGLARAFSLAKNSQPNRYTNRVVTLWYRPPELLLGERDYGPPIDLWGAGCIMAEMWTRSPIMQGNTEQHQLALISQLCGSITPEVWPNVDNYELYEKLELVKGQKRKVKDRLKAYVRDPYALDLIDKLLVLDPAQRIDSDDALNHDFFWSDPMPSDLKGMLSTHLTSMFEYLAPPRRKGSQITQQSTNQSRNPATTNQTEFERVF
CDK9/cyclin T1, sequence (O60563 whole entry partner): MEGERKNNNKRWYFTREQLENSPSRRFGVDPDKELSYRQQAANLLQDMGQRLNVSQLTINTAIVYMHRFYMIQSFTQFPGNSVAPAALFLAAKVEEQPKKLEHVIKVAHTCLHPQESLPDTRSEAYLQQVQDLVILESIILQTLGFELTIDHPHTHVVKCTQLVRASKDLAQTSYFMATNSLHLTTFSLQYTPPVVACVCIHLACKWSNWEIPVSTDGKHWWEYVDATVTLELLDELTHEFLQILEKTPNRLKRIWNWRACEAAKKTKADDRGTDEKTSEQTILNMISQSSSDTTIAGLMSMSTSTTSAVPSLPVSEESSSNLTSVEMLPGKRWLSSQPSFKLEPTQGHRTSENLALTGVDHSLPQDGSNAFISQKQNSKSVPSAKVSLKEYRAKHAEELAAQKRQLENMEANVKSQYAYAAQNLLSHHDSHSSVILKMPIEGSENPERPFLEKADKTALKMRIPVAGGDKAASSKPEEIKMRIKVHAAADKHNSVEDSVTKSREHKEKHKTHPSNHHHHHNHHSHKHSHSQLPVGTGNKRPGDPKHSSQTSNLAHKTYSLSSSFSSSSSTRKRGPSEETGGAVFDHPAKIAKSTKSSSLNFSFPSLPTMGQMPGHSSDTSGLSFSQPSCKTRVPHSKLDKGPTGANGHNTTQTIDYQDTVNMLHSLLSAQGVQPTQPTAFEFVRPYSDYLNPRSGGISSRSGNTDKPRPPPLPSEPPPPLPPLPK
CDK7/cyclin H, sequence (P50613 whole entry): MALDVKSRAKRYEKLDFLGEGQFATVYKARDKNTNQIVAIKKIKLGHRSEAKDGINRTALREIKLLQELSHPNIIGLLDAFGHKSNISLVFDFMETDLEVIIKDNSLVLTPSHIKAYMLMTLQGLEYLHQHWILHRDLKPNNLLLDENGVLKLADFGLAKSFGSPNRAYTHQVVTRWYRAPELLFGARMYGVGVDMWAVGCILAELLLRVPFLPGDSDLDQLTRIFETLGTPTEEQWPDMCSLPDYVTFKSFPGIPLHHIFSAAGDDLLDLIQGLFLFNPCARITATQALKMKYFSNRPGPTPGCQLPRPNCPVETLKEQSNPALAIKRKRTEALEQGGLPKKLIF
CDK7/cyclin H, sequence (P51946 whole entry partner): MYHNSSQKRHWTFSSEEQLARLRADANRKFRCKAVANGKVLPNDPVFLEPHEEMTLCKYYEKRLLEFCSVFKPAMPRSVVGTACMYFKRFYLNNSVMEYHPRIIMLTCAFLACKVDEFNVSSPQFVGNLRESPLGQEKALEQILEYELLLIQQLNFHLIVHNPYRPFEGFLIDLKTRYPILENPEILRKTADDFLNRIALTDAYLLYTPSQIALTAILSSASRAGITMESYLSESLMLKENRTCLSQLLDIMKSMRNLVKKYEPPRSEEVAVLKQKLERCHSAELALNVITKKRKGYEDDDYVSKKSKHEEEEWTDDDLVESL
CDK1-cyclin B, sequence (P06493 whole entry): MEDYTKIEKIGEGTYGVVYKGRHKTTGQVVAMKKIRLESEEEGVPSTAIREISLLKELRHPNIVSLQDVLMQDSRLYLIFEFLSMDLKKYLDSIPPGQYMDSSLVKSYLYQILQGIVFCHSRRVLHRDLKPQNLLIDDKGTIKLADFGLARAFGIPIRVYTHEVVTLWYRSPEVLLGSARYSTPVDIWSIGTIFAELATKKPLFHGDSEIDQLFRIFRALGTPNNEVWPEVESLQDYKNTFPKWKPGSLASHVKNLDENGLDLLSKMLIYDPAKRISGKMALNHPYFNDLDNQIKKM
CDK1-cyclin B, sequence (P14635 whole entry partner): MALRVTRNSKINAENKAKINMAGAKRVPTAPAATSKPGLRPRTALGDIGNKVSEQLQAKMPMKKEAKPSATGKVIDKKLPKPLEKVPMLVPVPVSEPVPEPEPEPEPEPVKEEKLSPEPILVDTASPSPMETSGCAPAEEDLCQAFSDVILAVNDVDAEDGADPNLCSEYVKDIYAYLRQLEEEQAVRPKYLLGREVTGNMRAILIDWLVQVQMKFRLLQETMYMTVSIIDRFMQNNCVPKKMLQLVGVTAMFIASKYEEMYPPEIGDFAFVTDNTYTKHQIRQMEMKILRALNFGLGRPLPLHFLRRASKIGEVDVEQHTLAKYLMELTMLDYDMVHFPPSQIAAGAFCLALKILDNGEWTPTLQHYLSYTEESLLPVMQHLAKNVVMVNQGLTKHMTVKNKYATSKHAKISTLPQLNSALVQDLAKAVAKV

As to `CCNc1nc(C)c(-c2ccnc(Nc3cccc(CNS(C)(=O)=O)c3)n2)s1` [Compound 5, N-{3-[4-(2-Ethylamino-4-methyl-thiazol-5-yl)-pyrimidin-2-ylamino]-benzyl}-methanesulfonamide], the IC50 at CDK1-cyclin B was 1.26 µM; on CDK2-cyclin A it was 0.2 µM; on CDK2-cycline E, 0.158 µM; at CDK4-cyclin D1 it was 0.158 µM; on CDK7/cyclin H, 0.251 µM; at CDK9/cyclin T1, 0.0126 µM. In addition, the IC50 on GSK3b is 0.2 µM; in [1], 0.0501 µM; at Aurora A kinase, 0.0316 µM.

Regarding `Cc1nc(C)c(-c2ccnc(Nc3cccc(N4CCNCC4)c3)n2)s1` [Compound 8, [4-(2,4-Dimethyl-thiazol-5-yl)-pyrimidin-2-yl]-(3-piperazin-1-yl-phenyl)-amine], the IC50 on CDK1-cyclin B is 5.01 µM; at CDK2-cyclin A it was 5.01 µM; on CDK2-cycline E it was 2 µM; at CDK4-cyclin D1, 2.51 µM; on CDK7/cyclin H, 2 µM; on CDK9/cyclin T1 it was 0.501 µM. For the same compound, the IC50 was 12.6 µM on GSK3b, 0.0501 µM in assay [1] and 39.8 µM on Aurora A kinase.

For `Cc1nc(N)sc1-c1ccnc(Nc2cccc(CNS(=O)(=O)C(F)(F)F)c2)n1` [Compound 12, N-{3-[4-(2-Amino-4-methyl-thiazol-5-yl)-pyrimidin-2-ylamino]-benzyl}-C,C,C-trifluoro-methanesulfonamide], the IC50 at CDK1-cyclin B is 0.631 µM; on CDK2-cyclin A, 0.501 µM; on CDK2-cycline E, 0.0631 µM; at CDK4-cyclin D1, 0.631 µM; at CDK7/cyclin H, 0.2 µM; at CDK9/cyclin T1, 0.1 µM. For the same compound, the results for the IC50 (on GSK3b; in [1]; at Aurora A kinase) were 2 µM, 0.794 µM and 0.251 µM, respectively.

As for `CC(=O)NCc1ccc(Nc2nccc(-c3sc(C)nc3C)n2)cc1` [Compound 15, N-{4-[4-(2,4-Dimethyl-thiazol-5-yl)-pyrimidin-2-ylamino]-benzyl}-acetamide], the IC50 on CDK1-cyclin B is 0.501 µM; on CDK2-cyclin A, 1 µM; at CDK2-cycline E, 0.2 µM; at CDK4-cyclin D1, 0.631 µM; at CDK7/cyclin H, 1.58 µM; at CDK9/cyclin T1 it was 0.794 µM. Besides, the IC50 at GSK3b is 1 µM; in assay [1], 0.501 µM; on Aurora A kinase, 0.0398 µM.

Take `CC(=O)NCc1ccc(Nc2nccc(-c3sc(N)nc3C)n2)cc1` [Compound 16, N-{4-[4-(2-Amino-4-methyl-thiazol-5-yl)-pyrimidin-2-ylamino]-benzyl}-acetamide]: the IC50 at CDK1-cyclin B was 1 µM; at CDK2-cyclin A, 1.26 µM; on CDK2-cycline E, 0.158 µM; at CDK4-cyclin D1, 0.501 µM; on CDK7/cyclin H, 2 µM; at CDK9/cyclin T1, 0.251 µM. Besides, the IC50 was 1 µM on GSK3b, 0.158 µM in assay [1] and 0.0794 µM on Aurora A kinase.

Take `CCNc1nc(C)c(-c2ccnc(Nc3ccc(S(C)(=O)=O)cc3)n2)s1` [Compound 17, [4-(2-Ethylamino-4-methyl-thiazol-5-yl)-pyrimidin-2-yl]-(4-methanesulfonyl-phenyl)-amine]: the IC50 at CDK1-cyclin B is 1 µM; on CDK2-cyclin A, 0.0398 µM; at CDK2-cycline E, 0.0501 µM; at CDK4-cyclin D1 it was 1.58 µM; at CDK7/cyclin H it was 2.51 µM; on CDK9/cyclin T1, 0.2 µM. The IC50 was 2 µM on GSK3b, 0.251 µM in assay [1] and 0.0398 µM on Aurora A kinase.

As to `CCNc1nc(C)c(-c2ccnc(Nc3cccc(S(N)(=O)=O)c3)n2)s1` [Compound 18, 3-[4-(2-Ethylamino-4-methyl-thiazol-5-yl)-pyrimidin-2-ylamino]-benzenesulfonamide], the IC50 at CDK1-cyclin B was 2 µM; at CDK2-cyclin A, 1.58 µM; at CDK2-cycline E it was 0.794 µM; at CDK4-cyclin D1 it was 0.251 µM; at CDK7/cyclin H it was 0.126 µM; at CDK9/cyclin T1, 0.0158 µM. Also, the results for the IC50 (at GSK3b; in assay [1]) were 2.51 µM and 0.158 µM, respectively.

Consider `CNc1nc(C)c(-c2ccnc(Nc3ccc(S(C)(=O)=O)cc3)n2)s1` [Compound 20, (4-Methanesulfonyl-phenyl)-[4-(4-methyl-2-methylamino-thiazol-5-yl)-pyrimidin-2-yl]-amine], for which the IC50 on CDK1-cyclin B was 0.158 µM; at CDK2-cyclin A it was 0.0158 µM; at CDK2-cycline E it was 0.00251 µM; at CDK4-cyclin D1, 2.51 µM; at CDK7/cyclin H, 3.98 µM; at CDK9/cyclin T1, 0.0631 µM. Also, the IC50 (on GSK3b; in assay [1]) was 0.316 µM throughout.

Turning to `CNc1nc(C)c(-c2ccnc(Nc3cccc(S(=O)(=O)NC)c3)n2)s1` [Compound 21, N-Methyl-3-[4-(4-methyl-2-methylamino-thiazol-5-yl)-pyrimidin-2-ylamino]-benzenesulfonamide], the IC50 on CDK1-cyclin B is 1 µM; on CDK2-cyclin A, 0.794 µM; at CDK2-cycline E, 0.0631 µM; at CDK4-cyclin D1, 0.0398 µM; at CDK7/cyclin H, 0.251 µM; on CDK9/cyclin T1, 0.0126 µM. For the same compound, the IC50 on GSK3b is 0.251 µM; in [1], 0.158 µM; at Aurora A kinase, 0.0794 µM.

For `CNS(=O)(=O)c1cccc(Nc2nccc(-c3sc(N)nc3C)n2)c1` [Compound 26, 3-[4-(2-Amino-4-methyl-thiazol-5-yl)-pyrimidin-2-ylamino]-N-methyl-benzenesulfonamide], the IC50 at CDK1-cyclin B is 1.26 µM; on CDK2-cyclin A it was 1 µM; at CDK2-cycline E it was 0.251 µM; on CDK4-cyclin D1, 2.51 µM; on CDK7/cyclin H, 0.794 µM; on CDK9/cyclin T1, 0.126 µM. Also, the IC50 at GSK3b is 0.316 µM; in assay [1] it was 1 µM; at Aurora A kinase it was 0.0794 µM.

Consider `CCNS(=O)(=O)c1cccc(Nc2nccc(-c3sc(N)nc3C)n2)c1` [Compound 30, 3-[4-(2-Amino-4-methyl-thiazol-5-yl)-pyrimidin-2-ylamino]-N-ethyl-benzenesulfonamide], for which the IC50 was 2 µM on CDK1-cyclin B; 1 µM on CDK2-cyclin A; 0.1 µM at CDK2-cycline E; 0.794 µM on CDK4-cyclin D1; 0.398 µM on CDK7/cyclin H; 0.02 µM on CDK9/cyclin T1. Moreover, the results for the IC50 (at GSK3b; in assay [1]; on Aurora A kinase) were 0.316 µM, 0.2 µM and 0.0158 µM, respectively.
